In paper PMC10269622, “Blapstin, a Diapause-Specific Peptide-Like Peptide from the Chinese Medicinal Beetle Blaps rhynchopetera, Has Antifungal Function” (Microbiology Spectrum, 2023):
Bridge positions count the residues as written; N and C are the ends. Ends that are not written are not given here.

What was measured:
C. albicans ATCC 10231 [1] = assay: Cryo-SEM membrane morphology; assay type: cell-based, Candida albicans; conditions: 1× MIC, 10 μL on filter paper disk, YM solid medium
Description: Cryo-SEM was used to examine membrane morphology as previously described with minor modifications ([65]). C. albicans ATCC 10231 was cultured in a nutrient YM solid medium. Sterilized 5-mm-diameter filter paper disks were placed on the surface of the medium, and 10 μL (1× MIC) of blapstin was added to the disks. Sterile 0.9% NaCl was used as the blank control. Fungi treated with blapstin were observed using cryo-SEM with a Quorum pp3010t system (Sigma 300; Carl Zeiss, Germany).

T. rubrum = assay: Cryo-SEM membrane morphology; assay type: cell-based, Trichophyton rubrum; conditions: 1× MIC
C. albicans ATCC 10231 [2] = assay: Cell membrane potential changes, DiSC3(5) staining; assay type: cell-based, Candida albicans; conditions: 16× MIC, 8× MIC and 1× MIC; 0.5 μM DiSC3(5), 100 mM KCl, measured for 60 min; dose-dependent; weaker than 10 μM valinomycin
Description: DiSC3(5) is a fluorescent probe often used as a tracer dye to assess the mitochondrial membrane potential ([71]); therefore, we assessed the effects of blapstin on the cell membrane potential changes of C. albicans ATCC 10231 using DiSC3(5) staining. C. albicans ATCC 10231 was cultured in YM medium to logarithmic stage in a constant-temperature shaking machine at 37°C, centrifuged at 1,000 × g for 5 min to remove the supernatant, and washed with normal saline three times, and then normal saline containing 100 mM potassium chloride (KCl) was used to dilute the bacterial solution to an optical density at 600 nm (OD600) of 0.1. DiSC3(5) dye was dissolved by dimethyl sulfoxide (DMSO) into the mother solution and normal saline diluted with 15% DMSO so that the final concentration of DiSC3(5) added to the bacterial solution was 0.5 μM. The mixture was added to a special fluorescent 96-well plate with 190 μL in each well. The excitation/emission wavelengths were set at 622/670 nm, measurement was carried out with a multifunctional fluorescent enzyme labeling instrument (SynergyH1; Biotek, USA) until the value of the enzyme marker was stable, and then measurement was continued for 20 min. The final concentrations were 16× MIC, 8× MIC, and 1× MIC when 10 μL blapstin was added to the experimental group. […]

C. albicans = assay: Thermostability of antifungal activity (paper disk assay); assay type: physicochemical, Candida albicans; conditions: for Antifungal activity after heating: 20 μL of 225 μM, then paper disk assay on YM medium, 37°C, 18 h
Description: (i) Effects of temperature. In the test of thermostability of antifungal activity, (20 μL(225 μM) of blapstin was heated at different temperatures (20°C, 40°C, 60°C, 80°C, 90°C, and 100°C) for 30 min and cooled down at 4°C ([63]). Colistin E was used as the positive control, and 1.5% NaCl was used as the negative control. Then, these samples were transferred to the paper disks in the YM solid medium with C. albicans and incubated at 37°C for 18 h for the assay of antifungal activity.

RAW 264.7 cells = assay: Cytotoxicity, CCK-8 assay; assay type: cell-based, mouse; conditions: from 7.03 μM to 225 μM, 24 h, CCK-8, absorbance at 450 nm; three independent experiments
Description: Cytotoxicity was determined using mouse RAW 264.7 cells (10^6 cells/mL). These cells were cultured in sterile 96-well microplates with RPMI 1640 medium (Corning, USA) in a 5% CO2 incubator at 37°C. The medium was supplemented with 10% fetal calf serum (FCS) and penicillin-streptomycin (100 U/mL each). Cytotoxicity was assessed using the cell counting kit-8 (CCK-8) assay (MCE, USA). After 24 h of incubation with serial dilutions of blapstin, 10 μL of CCK-8 solution was added to each well. The plate was further incubated for 1 to 4 h under standard cell growth conditions, and the residual absorbance was read at 450 nm. The experiments were repeated three times according to the manufacturer’s instructions.

[3] = system: C. albicans ATCC 10231 biofilm; assay: CLSM live/dead (FDA/PI) staining of biofilm; assay type: cell-based, Candida albicans; conditions: 8× MIC, among 0.5× to 8× MIC; 48 h, 37°C
Description: Blapstin at various concentrations (500 μL) was added to 500 μL of the prepared fungal suspension of C. albicans ATCC 10231 (2 × 10^5 CFU/mL) in a sterile 24-well plate to ensure that the final concentration of blapstin ranged from 0.5× to 8× MIC; the plate was incubated for 48 h at 37°C, followed by washing with PBS two to three times to remove unadhered fungal cells. Then, 10 μg/mL of FDA (Solarbio, Beijing, China) and 5 μg/mL of PI (Solarbio, Beijing, China) were added for costaining in the dark for 30 min and washed with PBS twice, as described previously ([68]). Subsequently, the plates were observed using a CLSM (FV 1000; Olympus, Germany). The FDA and PI were excited at 488 nm and 555 nm, respectively, for imaging. Cell viability was assessed based on fluorescence staining; living cells hydrolyze FDA, resulting in the accumulation of green fluorescence, whereas dead cells are stained red by PI. Fluconazole at 10 μΜ and clotrimazole at 10 μΜ were used as a positive control, and sterile 0.9% NaCl was used as a negative control. Green or red fluorescence intensity was calculated using Image J.

What does the source list for “VRVGPCDQVCSRTNPEKDECCRAHGHSGHSSCYGGRMNCYG (disulfide 6-21, 10-32, 20-39 (inferred)) [Blapstin]”?
Membrane morphology under cryo-SEM (C. albicans ATCC 10231 [1]): membrane shrinkage and disruption of the plasma membrane; Membrane morphology under cryo-SEM (T. rubrum): membrane shrinkage and disruption of the plasma membrane; Cellular DiSC3(5) fluorescence (membrane potential) compared with negative control (C. albicans ATCC 10231 [2]): increased significantly; Antifungal activity after heating (C. albicans; 20°C to 90°C for 30 min): full antifungal activity was retained; Antifungal activity after heating (C. albicans; 100°C for 30 min): slightly reduced; Thermostable up to (C. albicans; heated 30 min, read-out antifungal activity toward C. albicans): up to 90 °C; Cytotoxicity in RAW 264.7 cells (RAW 264.7 cells): no obvious cytotoxicity; Effect on biofilm activity (FDA-labeled live / PI-labeled dead cells, CLSM) [3]: greatest effect
